From US7750013B2, “N-oxides as prodrugs of piperazine and piperidine derivatives” (Solvay Pharmaceuticals, B.V., priority 2005, dated 2010) come the findings set out here.

In data set [1] the target is Dopamine-D5 (Homo sapiens, UniProt P21918). Description: In vitro receptor affinity, Dopamine-D5. Type of data set: binding. The procedure: (§1) The binding data collected in the table below (Example 5: pharmacological test results) were either obtained by CEREP (128, rue Danton, 92500 Rueil-Malmaison, France) or at Solvay Pharmaceuticals B.V. (C. J. van Houtenlaan 36, 1381 CP Weesp, The Netherlands), using well documented standard procedures. The affinities for dopamine-D2 and 5-HT1A receptors for instance, was measured as described by Creese I, Schneider R and Snyder S H, [^3H]-Spiroperidol labels dopamine receptors in rat pituitary and brain, Eur J Pharmacol […], 46: 377-381 and Gozlan H, El Mestikawy S, Pichat L, Glowinsky J and Hamon M, 1983, Identification of presynaptic serotonin autoreceptors using a new ligand ^3H-PAT, Nature 1983, 305: 140-142.
Sequence of Dopamine-D5 (P21918 whole entry): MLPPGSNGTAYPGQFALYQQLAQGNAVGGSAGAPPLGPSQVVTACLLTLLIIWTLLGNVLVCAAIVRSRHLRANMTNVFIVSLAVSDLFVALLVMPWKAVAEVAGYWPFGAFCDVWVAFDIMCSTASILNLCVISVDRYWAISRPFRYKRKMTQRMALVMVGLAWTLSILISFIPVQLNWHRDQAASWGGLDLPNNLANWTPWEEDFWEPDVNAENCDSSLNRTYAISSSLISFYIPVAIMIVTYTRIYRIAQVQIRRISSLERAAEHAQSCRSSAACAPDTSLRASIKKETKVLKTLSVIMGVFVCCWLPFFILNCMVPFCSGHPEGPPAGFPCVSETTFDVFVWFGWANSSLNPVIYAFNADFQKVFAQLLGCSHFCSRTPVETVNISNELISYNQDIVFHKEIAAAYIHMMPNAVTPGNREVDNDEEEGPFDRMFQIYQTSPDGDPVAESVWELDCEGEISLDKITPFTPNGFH

The target in data set [2] is 5-HT2A (Homo sapiens, UniProt P28223). In words: In vitro receptor affinity, 5-HT2A. Type of data set: binding. The procedure: as §1
Sequence of 5-HT2A (P28223 whole entry): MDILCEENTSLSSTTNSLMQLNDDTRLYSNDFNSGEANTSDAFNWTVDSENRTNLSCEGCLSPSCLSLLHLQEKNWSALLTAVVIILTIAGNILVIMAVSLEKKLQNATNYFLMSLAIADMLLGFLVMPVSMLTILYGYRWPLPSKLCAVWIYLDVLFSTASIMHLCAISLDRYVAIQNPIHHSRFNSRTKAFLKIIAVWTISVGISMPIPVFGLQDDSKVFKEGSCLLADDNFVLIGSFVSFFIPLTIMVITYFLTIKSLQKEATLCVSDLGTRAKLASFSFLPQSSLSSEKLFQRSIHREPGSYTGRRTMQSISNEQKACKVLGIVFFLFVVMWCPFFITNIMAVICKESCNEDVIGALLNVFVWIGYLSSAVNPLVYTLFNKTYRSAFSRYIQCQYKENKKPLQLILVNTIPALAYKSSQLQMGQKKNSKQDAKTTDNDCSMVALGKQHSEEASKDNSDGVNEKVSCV
In data set [3] the target is α1B-adrenergic (Rattus norvegicus, UniProt P15823). Description: In vitro receptor affinity, α1B-adrenergic. Type of data set: binding. The procedure:
as §1

The target of data set [4] is α2-adrenergic. In words: In vitro receptor affinity, α2-adrenergic. The class given is binding. The following applies: rat; radioligand [3H]-RX 821002. The procedure:
as §1

The target in data set [5] is μ-opiate (Rattus norvegicus, UniProt P33535). Description: In vitro receptor affinity, μ-opiate. Type of data set: binding. The procedure:
as §1

Data set [6] addresses T1, Human dopamine-D3 receptor (Homo sapiens, UniProt P35462).
T1 construct: expressed in transfected cells
In words: In vitro functional receptor activity. Type of data set: cell-based.

Data set [7] relates to Dopamine-D2 receptor. Description: Apomorphine-induced climbing behaviour in mice. Type of data set: in vivo. The procedure:
In Vivo Animal Model for Dopamine-D2 Receptor (Ant)Agonistic Activity
Apomorphine-induced climbing behaviour in mice (Costall B, Naylor R J and Nohria V, Differential actions of typical and atypical agents on two behavioural effects of apomorphine in the mouse, Brit J Pharmacol 1978, 63: 381-382).
For oral (p.o.) administration: to the desired quantity (0.5-5 mg) of the solid test compound in a glass tube, some glass beads were added and the solid was milled by vortexing for 2 minutes. After addition of 1 ml of a solution of 1% methylcellulose in water and 2% (v/v) of Poloxamer 188 (Lutrol F68), the compound was suspended by vortexing for 10 minutes. The pH was adjusted to 7. Remaining particles in the suspension were further suspended by using an ultrasonic bath.
For intravenous (i.v.) administration: compounds were dissolved in physiological saline (0.9% NaCl) and the pH was adjusted to 7.

Data set [8] in a line: Plasma levels of SLV308 and its N-oxide after oral dosing. The settings on record: after oral administration; rats. The class given is in vivo. The text has this: These findings were corroborated by measurements of plasma levels of SLV308 and its N-oxide after oral dosing with SLV308 and the N-oxide.

Structures are written as SMILES.

T1 sequence (P35462 whole entry): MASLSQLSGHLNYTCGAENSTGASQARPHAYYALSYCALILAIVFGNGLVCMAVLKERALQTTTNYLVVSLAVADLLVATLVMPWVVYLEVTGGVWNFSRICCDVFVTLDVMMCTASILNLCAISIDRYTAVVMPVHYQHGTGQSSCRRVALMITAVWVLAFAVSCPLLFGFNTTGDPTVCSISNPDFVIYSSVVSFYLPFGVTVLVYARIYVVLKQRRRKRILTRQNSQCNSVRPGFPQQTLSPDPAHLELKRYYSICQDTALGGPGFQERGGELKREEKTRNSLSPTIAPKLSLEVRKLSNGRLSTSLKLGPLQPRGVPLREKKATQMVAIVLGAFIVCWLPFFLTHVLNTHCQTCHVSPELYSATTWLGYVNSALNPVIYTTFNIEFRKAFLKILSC
Sequence of α1B-adrenergic (P15823 whole entry): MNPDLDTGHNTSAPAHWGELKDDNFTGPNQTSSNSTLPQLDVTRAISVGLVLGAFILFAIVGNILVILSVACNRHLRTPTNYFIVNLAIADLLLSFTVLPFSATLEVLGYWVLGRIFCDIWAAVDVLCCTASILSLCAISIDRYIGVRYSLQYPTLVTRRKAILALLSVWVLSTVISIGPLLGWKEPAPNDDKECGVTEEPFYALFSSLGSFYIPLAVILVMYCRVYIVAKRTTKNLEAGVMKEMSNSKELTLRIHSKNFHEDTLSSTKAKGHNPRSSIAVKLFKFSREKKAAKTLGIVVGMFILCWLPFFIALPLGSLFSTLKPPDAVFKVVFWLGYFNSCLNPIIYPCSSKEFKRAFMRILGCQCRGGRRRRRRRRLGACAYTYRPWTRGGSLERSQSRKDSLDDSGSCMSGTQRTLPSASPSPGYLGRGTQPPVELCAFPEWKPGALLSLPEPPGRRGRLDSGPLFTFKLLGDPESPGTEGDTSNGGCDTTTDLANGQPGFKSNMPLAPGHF
Sequence of μ-opiate (P33535 whole entry): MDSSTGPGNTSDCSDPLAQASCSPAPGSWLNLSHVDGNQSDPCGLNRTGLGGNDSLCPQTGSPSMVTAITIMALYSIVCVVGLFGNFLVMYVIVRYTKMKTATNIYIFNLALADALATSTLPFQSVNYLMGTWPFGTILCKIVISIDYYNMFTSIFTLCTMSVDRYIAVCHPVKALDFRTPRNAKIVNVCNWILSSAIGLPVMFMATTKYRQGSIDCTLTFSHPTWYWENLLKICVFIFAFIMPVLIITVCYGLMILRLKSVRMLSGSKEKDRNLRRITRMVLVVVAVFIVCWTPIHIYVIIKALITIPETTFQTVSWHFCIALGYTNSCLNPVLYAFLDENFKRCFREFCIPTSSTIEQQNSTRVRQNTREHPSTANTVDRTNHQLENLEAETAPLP

As to `C[N+]1([O-])CCN(c2cccc3[nH]c(=O)oc23)CC1` [N-oxide of SLV308, N-Oxide of SLV308], the melting point was 242 to 243 °C. This compound also registered an inhibition constant Ki in data set [1] of over 1000 nM. This compound also registered a Ki in [2] of over 1000 nM. Also, the affinity in data set [3] corresponds to a Ki of 400 nM. Further, the Ki in [4] was found to be 500 nM. Moreover, in [5], the Ki was over 1000 nM. In addition, in data set [6], a half-maximal response (EC50) required 50.1 nM, the “Human dopamine-D3 receptor intrinsic activity (α)” value is on record as 0.60 and the Kb was over 10000 nM. For the same compound, in data set [7] (administered intravenously), the “In vivo activity compared with the parent compound (in words)” value is listed as “approximately one tenth of the activity of the parent compound”. In addition, the “Antagonism of apomorphine induced climbing behavior after intravenous dosing: ED50” value in data set [7] (mice, i.v.) was determined as 0.90 mg/kg. For the same compound, the “Antagonism of apomorphine induced climbing behavior after oral dosing: ED50” value in data set [7] (mice, oral) is given as 0.79 mg/kg. For the same compound, the “In vivo activity compared with the parent compound (in words)” value in data set [7] (oral administration) is on record as “equipotent with SLV308”. The “Plasma levels of the N-oxide relative to SLV308 (in words)” value in data set [8] is reported as “approximately equal”.

Broadly, the Ki is the dissociation constant of the complex between target and ligand, obtained from inhibition or displacement. The low end stands for tighter binding, the high end for weaker binding. In general, EC50 refers to the concentration giving half of the maximal effect. Read a low EC50 as an effect from little substance. By melting point is commonly meant the temperature, or range, at which the solid turns liquid.
